Experiment [1] addresses anticardiolipin antibody (serum of patient ACA-6501). As to the kind of experiment: competitive ELISA, binding of patient ACA-6501 serum to cardiolipin/β2-GPI coated plate. The settings on record: for IC50: amount of peptide that inhibited the human serum's binding by 50%, serum of patient ACA-6501 (GPL score 1500). Further details: species or system human. As to the method: (§1) The binding affinities of a number of the thioether cyclic polypeptides of the present invention to anticardiolipin antibody were determined by a competitive ELISA (i.e., enzyme-linked immunosorbent assay) and compared with binding affinities of the corresponding disulfide cyclic polypeptides (e.g., 3G3, 2G3, and G3).
(§2) Of 96 wells of a flat-bottom Immulon I microtiter plate (Dynatech Labs, Alexandria, Va.), 94 wells were coated with […] cardiolipin per well in 30 mL, of ethanol. The remaining two wells were used as controls and each received 30 mL, of ethanol. After overnight evaporation at 4° C., the plate was blocked for 2 hours at room temperature with 200 mL of 5% (w/v) fish gelatin in phosphate buffered saline (i.e., PBS, 0.15 M NaCl and 0.01 M Na2 HPO4 at pH 7.2). The plate was washed five times in Tris buffered saline (i.e., TBS, 0.15 M NaCl and 0.05 M Tris-HCl at pH 8.5). Then, β2 -glycoprotein I (i.e., β2 -GPI) was added as […] of 2.3% (v/v) IgG-depleted human serum (Sigma Chemical Co.) and incubated for 2 hours at room temperature.
(§3) During this incubation, peptide solutions (around 2 mg/mL) were prepared by dissolving thioether cyclic peptides in 3% fish gelatin in TBS. The serums of patient ACA-6501, who has a GPL (i.e., IgG Phospholipid) score of 1500, and patient ACA-6701, who has a GPL score of 102, were diluted about 40-fold in 3% fish gelatin in TBS-PBS (1:1). Variable amounts of each of peptides were combined with 22 mL of each of the diluted human serums and then made up to the final volume of 220 mL with 3% fish gelatin in TBS-PBS (1:1). For each peptide, at least four peptide concentrations were employed and each data point was determined in duplicate.
(§4) After 5 washes with TFBS, 100 mL of the peptide/human serum solution was added and the microplate was agitated at 40 rpm in an orbital shaker (American Scientific, Rotator V) for one hour at room temperature. The plate was washed extensively with TBS (5 times) and 100 mL of diluted (1/1000) alkaline phosphatase-conjugated goat anti-human IgG (Zymed, South San Francisco, Calif.) in 0.5% (w/v) BSA-TBS was added to each well (i.e., bovine serum albumin, BSA). The plate was then incubated for one hour at room temperature followed by addition of […]/well of PPMP solution (3 g/L phenolphthalein monophosphate plus 26.7 g/L 2-amino-2-methyl-1-propanol in water). The plate was allowed to develop at room temperature for 21 min and the reaction was stopped by adding 50 mL of 0.2 M Na2 HPO4 (Mallinckrodt) to each well. Blanks consisted of protein-coated wells that received similar treatment except human serum was not added to these wells. The plate was read at 550 nm using a microplate reader (Bio-Tek Instruments, Model EL 311).
(§5) Absorbance vs. amount of peptide added was plotted using Graph Pad Prism (Graph Pad Software, Inc.). The amount of peptide that inhibited the human serum's binding by 50%, known as IC50, was calculated from the graph at the intersection of half-maximal absorbance with amount of peptide added.
(An ELISA detects its analyte on a solid surface through an enzyme-linked reagent.)

In experiment [2] the target is anticardiolipin antibody (serum of patient ACA-6701). As to the kind of experiment: competitive ELISA, binding of patient ACA-6701 serum to cardiolipin/β2-GPI coated plate. The note with it: amount of peptide that inhibited the human serum's binding by 50%; serum of patient ACA-6701 (GPL score 102). As for the experimental part:
as §1, §2, §3, §4, §5

Numbered stars: 1 amine (or outer) side, 2 acyl side, 3 side chain; on linkers, the order of the positions; unused ones are H or OH. Bridge positions count the residues as written; N and C are the ends. Square brackets hold non-standard residues; d marks the D form. Peptide text beside a SMILES is read from it. Abu(4-yl) = O=C([C@H](CC[*:3])N[*:1])[*:2]; hCys = N[C@@H](CCS)C(=O)O Where only a bound is given, the exact number is not on record here.

The term IC50 denotes the midpoint of a concentration-inhibition curve. High values mean lower potency, low ones higher potency.

For the compound `CC(C)C[C@@H]1NC(=O)[C@H](CCCCN)NC(=O)CNC(=O)[C@H](CC(C)C)NC(=O)[C@H](C(C)C)NC(=O)CNC(=O)[C@H](CC(C)C)NC(=O)[C@H](NC(=O)[C@@H]2CCCN2C(=O)CN)CSCC[C@@H](C(=O)N2CCC[C@H]2C(=O)NCC(=O)O)NC1=O` (single isomer, unassigned) [d-2G3-METE], the IC50 in experiment [1] came to 100 µM; in experiment [2], 436 µM.
In the case of `CC(C)C[C@@H]1NC(=O)[C@@H](NC(=O)[C@@H]2CCCN2C(=O)CN)CSCC[C@@H](C(=O)N2CCC[C@H]2C(=O)NCC(=O)O)NC(=O)[C@H](CC(C)C)NC(=O)[C@H](CCCCN)NC(=O)CNC(=O)[C@H](CC(C)C)NC(=O)[C@H](C(C)C)NC(=O)CNC1=O` (single isomer, unassigned) [l-2G3-METE], the IC50 in experiment [1] worked out at 209 µM; in experiment [2] it was 486 µM.
For `CC(C)C[C@@H]1NC(=O)C(NC(=O)[C@@H]2CCCN2C(=O)CN)CSC[C@@H](C(=O)N2CCC[C@H]2C(=O)NCC(=O)O)NC(=O)[C@H](CC(C)C)NC(=O)[C@H](CCCCN)NC(=O)CNC(=O)[C@H](CC(C)C)NC(=O)[C@H](C(C)C)NC(=O)CNC1=O` (stereo partly shown) [2G3-MMTE], the IC50 in experiment [1] and in experiment [2] was greater than 678 µM throughout.
`CC(C)C[C@@H]1NC(=O)[C@@H](NC(=O)[C@@H]2CCCN2C(=O)CNC(=O)[C@H](C)N)CCSC[C@@H](C(=O)N2CCC[C@H]2C(=O)NCC(=O)O)NC(=O)[C@H](CC(C)C)NC(=O)[C@H](CCCCN)NC(=O)CNC(=O)[C@H](CC(C)C)NC(=O)[C@H](C(C)C)NC(=O)CNC1=O` [3G3-EMTE] (H-AGP[Abu(4-yl)]LGVLGKLCPG-OH; thioether 4-12; N-terminus and C-terminus assumed) yielded an IC50 in experiment [1] of roughly 1120 µM.
In the case of `CC(C)C[C@@H]1NC(=O)C(NC(=O)[C@@H]2CCCN2C(=O)CNC(=O)[C@H](C)N)CSC[C@@H](C(=O)N2CCC[C@H]2C(=O)NCC(=O)O)NC(=O)[C@H](CC(C)C)NC(=O)[C@H](CCCCN)NC(=O)CNC(=O)[C@H](CC(C)C)NC(=O)[C@H](C(C)C)NC(=O)CNC1=O` (stereo partly shown) [3G3-MMTE], the IC50 in experiment [1] and in experiment [2] was roughly 1050 µM each time.
In the case of `CC(C)C[C@@H]1NC(=O)[C@H](CCCCN)NC(=O)CNC(=O)[C@H](CC(C)C)NC(=O)[C@H](C(C)C)NC(=O)CNC(=O)[C@H](CC(C)C)NC(=O)[C@@H](N)CCSCC[C@@H](C(N)=O)NC1=O` [G3-EETE] (H-[hCys]LGVLGKL[Abu(4-yl)]-NH2; thioether 1-9), the IC50 in experiment [1] worked out at 89 µM; in experiment [2] it was 40 µM.
For `CC(C)C[C@@H]1NC(=O)[C@H](CCCCN)NC(=O)CNC(=O)[C@H](CC(C)C)NC(=O)[C@H](C(C)C)NC(=O)CNC(=O)[C@H](CC(C)C)NC(=O)[C@@H](N)CCSC[C@@H](C(N)=O)NC1=O` [G3-EMTE] (H-[Abu(4-yl)]LGVLGKLC-NH2; thioether 1-9), the IC50 in experiment [1] is 52 µM; in experiment [2], 34 µM. Besides, the “biological activity in comparison with the corresponding disulfide cyclic peptide” value in experiment [1] (general statement on Table 1 (sera ACA-6501 and ACA-6701)) is given as “more active than the disulfide peptide G3”. Further, in experiment [1] (patient ACA-6501), the “activity relative to disulfide peptide G3” value is reported as “about twice as active as G3”.
`CC(C)C[C@@H]1NC(=O)[C@H](CCCCN)NC(=O)CNC(=O)[C@H](CC(C)C)NC(=O)[C@H](C(C)C)NC(=O)CNC(=O)[C@H](CC(C)C)NC(=O)[C@@H](N)CSCC[C@@H](C(N)=O)NC1=O` [G3-METE] (H-CLGVLGKL[Abu(4-yl)]-NH2; thioether 1-9): the IC50 in experiment [1] stood at 104 µM; in experiment [2], 36 µM.
With `CC(C)C[C@@H]1NC(=O)C(N)CSC[C@@H](C(N)=O)NC(=O)[C@H](CC(C)C)NC(=O)[C@H](CCCCN)NC(=O)CNC(=O)[C@H](CC(C)C)NC(=O)[C@H](C(C)C)NC(=O)CNC1=O` (stereo partly shown) [G3-MMTE], the IC50 in experiment [1] is 126 µM; in experiment [2] it was 57 µM.
